Common to all, as to format: functional
For test [1], the system named is P388. The test is described as follows: Antileukemic activity against mouse P388 cells xenografted in BDF1 mouse at 10 mg/kg/day relative to control.
The subject of test [2] is P388. The test is described as follows: Cytotoxicity against mouse P388 cells. Conditions: read-out: ED50 (the source's name).
For a further test, the system named is KB. The test is described as follows: Cytotoxicity against human KB cells. Conditions: read-out: ED50 (the source's name).
The nature of test [3]: Antitumor activity against mouse CA-755 cells xenografted in mouse assessed as reduction in tumor weight at 450 mg/kg/day. On the set-up: scale not given: the % may be the effect or the level left.

≈ marks a conversion by molar mass, not a printed value. Calls of active or inactive are those of the source. The calls are words filed in the database; no cut-off is given here. Bounds are passed on as bounds.

In the case of `O=C(/C=C/c1ccccc1)Oc1ccc2c(c1OC(=O)/C=C/c1ccccc1)C(=O)c1ccccc1C2=O`, the result in the test on P388 [1] was inactive.
`COc1ccc2c(c1O)C(=O)c1ccccc1C2=O` displayed a T/C in the test with P388 [1] of 126%.
Regarding `O=C(/C=C/c1ccccc1)Oc1ccc2c(c1O)C(=O)c1ccccc1C2=O`, the outcome with P388 [1] was inactive.
Turning to `COc1c(O)ccc2c1C(=O)c1ccccc1C2=O`, the figures for the EC50 with P388 [2] and in the test with KB were 27 µg/mL (≈ 106 µM) and more than 10 µg/mL, respectively. The compound further gave a T/C in the test on P388 [1] of 136%.
Take `O=C1c2ccccc2C(=O)c2c1ccc(O)c2O` [ATHRAQUINONES A]: the T/C with P388 [1] is 134%. Further, the Activity in test [3] was found to be 60%.
For `CC(=O)Oc1ccc2c(c1O)C(=O)c1ccccc1C2=O`, the outcome in the test on P388 [1] was inactive.
Take `O=C1c2ccccc2C(=O)c2c1ccc1c2OCO1`: the values for the EC50 in the test on P388 [2] and in the test with KB were 1.85 µg/mL (≈ 7.33 µM) and more than 10 µg/mL, respectively. The compound also returned a T/C in the test with P388 [1] of 129%.
The compound `O=C1c2ccccc2C(=O)c2c1ccc1c2OCCO1` displayed a T/C in the test on P388 [1] of 130%.
In the case of `CC(C)=CC(=O)Oc1ccc2c(c1O)C(=O)c1ccccc1C2=O`, the result in the test on P388 [1] was inactive.
On the same count and under the same terms, then `CC(C)=CC(=O)Oc1ccc2c(c1OC(=O)C=C(C)C)C(=O)c1ccccc1C2=O`, with “inactive”; and `CC(=O)Oc1ccc2c(c1OC(C)=O)C(=O)c1ccccc1C2=O`, with “inactive”.

The record behind these values is ChEMBL document CHEMBL1151383, “Antitumor agents 50. 1 Morindaparvin-A, a new antileukemic anthraquinone, and alizarin-1-methyl ether from Morinda parvifolia, and the antileukemic activity of the related derivatives” (1982).
